# Laboratory results reported in patent US9302999B2, “Substituted triazoles as herbicides” (E. I. DU PONT DE NEMOURS AND COMPANY, priority 2012, dated 2016).
# Experiments:
# Assay type in all cases: in vivo
# [1] = test system: large crabgrass (Digitaria sanguinalis); test: Test C pre-/postemergence: large crabgrass; conditions: Preemergence
# Outline: (§1)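 Preemergence on seeds in loam/sand, postemergence on 2–18 cm (1–4-leaf) plants in peat-based medium; compounds in non-phytotoxic solvent with surfactant. After 13–15 days in greenhouse, visual rating versus controls, 0 (no effect) to 100 (complete control).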
# [2] = test system: galium (catchweed bedstraw, Galium aparine); test: Test C pre-/postemergence: galium; conditions: Preemergence
# Outline: as §1
# [3] = test system: velvetleaf (Abutilon theophrasti); test: Test C pre-/postemergence: velvetleaf; conditions: Preemergence
# Outline: as §1
# [4] = test system: foxtail, giant (giant foxtail, Setaria faberii); test: Test C pre-/postemergence: foxtail, giant; conditions: Preemergence
# Outline: as §1
# [5] = test system: morningglory (Ipomoea coccinea); test: Test C pre-/postemergence: morningglory; conditions: Preemergence
# Outline: as §1
# [6] = test system: ryegrass, Italian (Italian ryegrass, Lolium multiflorum); test: Test C pre-/postemergence: ryegrass, Italian; conditions: Preemergence
# Outline: as §1
# corn (Zea mays) = test: Test C pre-/postemergence: corn; conditions: Preemergence
# Outline: as §1
# kochia (Kochia scoparia) = test: Test C pre-/postemergence: kochia; conditions: Preemergence
# Outline: as §1
# [7] = test system: ducksalad (Heteranthera limosa); test: Test B flooded paddy: ducksalad; conditions: Flood; 250 g ai/ha; applied to paddy water at 2-leaf stage; visually evaluated after 13 to 15 days
# Outline: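 Plants were grown to the 2-leaf stage, then pots were flooded to 3 cm above the soil and compounds were applied directly into the paddy water. Water depth was held for the whole test; after 13 to 15 days in a greenhouse, injury was visually rated against untreated controls (0 = no effect, 100 = complete control).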
# wild oat (Avena fatua) = test: Test C pre-/postemergence: wild oat; conditions: Preemergence
# Outline: as §1
# [8] = test system: johnsongrass (Sorghum halepense); test: Test C pre-/postemergence: johnsongrass; conditions: Preemergence
# Outline: as §1
# [9] = 31 g ai/ha, scale of 0 to 100, 0 is no effect, 100 is complete control
# [10] = 62 g ai/ha, scale of 0 to 100, 0 is no effect, 100 is complete control
# [11] = 125 g ai/ha, scale 0 to 100, 0 no effect, 100 complete control
# [12] = 250 g ai/ha, scale 0 to 100, 0 no effect, 100 complete control
smiles,measurement,setting,value
Cc1nn(-c2ccc(F)cc2F)nc1Oc1ccnc(C(F)(F)F)c1 [Compound 146],"Plant response rating, Crabgrass, Large",[1]; [9],98
same,"Plant response rating, Crabgrass, Large",[1]; [10],100
same,"Plant response rating, Crabgrass, Large",[1]; [11],100
same,"Plant response rating, Crabgrass, Large",[1]; [12],100
same,"Plant response rating, Galium",[2]; [9],95
same,"Plant response rating, Galium",[2]; [10],95
same,"Plant response rating, Galium",[2]; [11],95
same,"Plant response rating, Galium",[2]; [12],100
same,"Plant response rating, Velvetleaf",[3]; [9],0
same,"Plant response rating, Velvetleaf",[3]; [10],5
same,"Plant response rating, Velvetleaf",[3]; [11],15
same,"Plant response rating, Velvetleaf",[3]; [12],60
same,"Plant response rating, Foxtail, Giant",[4]; [9],40
same,"Plant response rating, Foxtail, Giant",[4]; [10],100
same,"Plant response rating, Foxtail, Giant",[4]; [11],100
same,"Plant response rating, Foxtail, Giant",[4]; [12],100
same,"Plant response rating, Morningglory",[5]; [9],35
same,"Plant response rating, Morningglory",[5]; [10],40
same,"Plant response rating, Morningglory",[5]; [11],45
same,"Plant response rating, Morningglory",[5]; [12],90
same,"Plant response rating, Ryegrass, Italian",[6]; [9],0
same,"Plant response rating, Ryegrass, Italian",[6]; [10],30
same,"Plant response rating, Ryegrass, Italian",[6]; [11],55
same,"Plant response rating, Ryegrass, Italian",[6]; [12],90
same,"Plant response rating, Corn",corn (Zea mays); [9],0
same,"Plant response rating, Corn",corn (Zea mays); [10],0
same,"Plant response rating, Corn",corn (Zea mays); [11],15
same,"Plant response rating, Corn",corn (Zea mays); [12],25
same,"Plant response rating, Kochia",kochia (Kochia scoparia); [9],30
same,"Plant response rating, Kochia",kochia (Kochia scoparia); [10],55
same,"Plant response rating, Kochia",kochia (Kochia scoparia); [11],85
same,"Plant response rating, Kochia",kochia (Kochia scoparia); [12],85
same,"Plant response rating, Ducksalad (0 to 100 scale, 0 is no effect, 100 is complete control)",[7],60
same,"Plant response rating, Oat, Wild",wild oat (Avena fatua); [9],5
same,"Plant response rating, Oat, Wild",wild oat (Avena fatua); [10],40
same,"Plant response rating, Oat, Wild",wild oat (Avena fatua); [11],85
same,"Plant response rating, Oat, Wild",wild oat (Avena fatua); [12],90
same,"Plant response rating, Johnsongrass",[8]; [9],5
same,"Plant response rating, Johnsongrass",[8]; [10],75
same,"Plant response rating, Johnsongrass",[8]; [11],98
same,"Plant response rating, Johnsongrass",[8]; [12],100
